Like-named read-outs stand apart in the source and are kept apart here.
Tests used:
[1] = Plasma and brain pharmacokinetics after intraperitoneal administration; conditions: for Brain/Plasma ratio AUC0-inf / Brain/Plasma ratio Cmax: assumes brain density 1 g/ml
[2] = Monitoring for sedation via physical observation; format: in vivo, mouse; conditions: all mice treated with CBD (70-150 mg/kg with CLB 5 + VPA 75 mg/kg ip)
Core body temperature = format: in vivo, mouse; conditions: all mice treated with CBD (with CLB + VPA) ip
[3] = tested on: hyperthermia-induced seizures in Scn1a^A1783V/WT mice; conditions: cited from earlier work
[4] = mouse, in vivo
[5] = comedication with CLB; cited from earlier work
in vivo = conditions: Scn1a^WT/WT (wild-type), mouse, ip
[6] = Single Drug, each alone ip, Scn1a^WT/WT mice
[7] = Triple (CLB+VPA+CBD) ip, Scn1a^WT/WT mice
[8] = Double (CLB+VPA) ip, Scn1a^WT/WT mice

Q: With `C=C(C)[C@@H]1CCC(CO)=C[C@H]1c1c(O)cc(CCCCC)cc1O` [7-OH-CBD, 7-hydroxycannabidiol] as the molecule, how does the “Brain/Plasma ratio AUC0-inf” value [1, 6] read?
A: The value was 0.82.

Q: What about the “Brain/Plasma ratio Cmax” value [1, 6] of the same molecule?
A: Its value is 0.93.

Q: What about the “Brain/Plasma ratio AUC0-inf” value [1, 7] of the same molecule?
A: Its value is 1.02.

Q: And the “Brain/Plasma ratio Cmax” value [1, 7]?
A: The value was 0.86.

Q: Which results are given for `C=C(C)[C@@H]1CCC(C)=C[C@H]1c1c(O)cc(CCCCC)cc1O` [CBD, cannabidiol]?
A: Signs of sedation [2]: No signs of sedation; Post-injection core body temperature compared to baseline pre-injection (Core body temperature): reduction in post-injection core body temperatures; Increase in brain exposure, CBD+CLB+VPA compared to CBD monotherapy ([1]; mouse, in vivo): two-fold

Q: Which “Exposure (AUC0-inf), triple-drug therapy (CLB+VPA+STP) vs CLB alone or CLB + VPA” value ([1]; Scn1a^WT/WT mice) does the source give for `CN1C(=O)CC(=O)N(c2ccccc2)c2cc(Cl)ccc21` [CLB, clobazam] here?
A: The value was “substantially higher”.

Q: What about the “CLB stand-alone PK in Scn1a^A1783V/WT vs Scn1a^WT/WT mice” value ([1]; Table S2) of the same molecule?
A: The value was “comparable PK profile”.

Q: And the “Exposure when adding CBD to CLB+VPA vs adding STP to CLB+VPA” value ([1]; mouse, in vivo)?
A: The value was “higher”.

Q: What about the “Brain Cmax, triple-drug therapy (CLB+VPA+STP) vs CLB alone and CLB + VPA” value ([1]; p<0.0001 vs CLB alone, p=0.0003 vs CLB + VPA) of the same molecule?
A: The value was “significantly higher”.

Q: With `CCNC(C)Cc1cccc(C(F)(F)F)c1` (stereo not drawn) [FFA, fenfluramine] as the molecule, how does the “Protection against hyperthermia-induced seizures” value (“Protection” below) ([3]; FFA 25 mg/kg alone) read?
A: The value was “insufficient to prevent hyperthermia-induced seizures”.

Q: For `C[C@H]1CNCCc2ccc(Cl)cc21` [LCS, Lorcaserin], which “Protection” value ([3]; LCS 10 mg/kg alone) is on record?
A: The value was “insufficient to prevent hyperthermia-induced seizures”.

Q: Which “Brain/Plasma ratio AUC0-inf” value [1, 8] does the source give for `O=C1CC(=O)N(c2ccccc2)c2cc(Cl)ccc2N1` [N-CLB, N-desmethylclobazam] here?
A: The value was 1.42.

Q: And the “Brain/Plasma ratio Cmax” value [1, 8]?
A: The value was 1.39.

Q: And the “Brain/Plasma ratio AUC0-inf” value [1, 6]?
A: The value was 2.1.

Q: And the “Brain/Plasma ratio Cmax” value [1, 6]?
A: The value was 1.25.

Q: And the “Brain/Plasma ratio AUC0-inf” value [1, 7]?
A: Its value is 1.56.

Q: What about the “Brain/Plasma ratio Cmax” value [1, 7] of the same molecule?
A: The value was 1.2.

Q: What about the “Brain/Plasma ratio AUC0-inf” value ([1]; Triple (CLB+VPA+STP) ip, Scn1a^WT/WT mice) of the same molecule?
A: Its value is 2.29.

Q: And the “Exposure when adding CBD to CLB+VPA vs adding STP to CLB+VPA” value ([1]; mouse, in vivo)?
A: The value was “higher”.

Q: And the “Fold increase of concentrations in triple-drug therapies compared to CLB+VPA” value ([1]; mouse, in vivo)?
A: Its value is greater than 2 fold.

Q: With `CC(C)(C)C(O)/C=C/c1ccc2c(c1)OCO2` (stereo not drawn) [STP, stiripentol] as the molecule, how does the “Brain Cmax, CLB + VPA + STP cohort vs STP alone” value [4] read?
A: Its value is “not different”.

Q: What about the “Protection” value ([3]; STP 100 mg/kg alone) of the same molecule?
A: The value was “ineffective”.

Q: And the “Increase of STP concentration by CLB” value [5]?
A: Its value is 37%.

Q: What about the half-life (in vivo) of the same molecule?
A: The half-life was 52.1 min.

Q: With `CCCC(CCC)C(=O)O` [VPA, sodium valproate] as the molecule, how does the “Brain exposure in CBD+CLB+VPA compared to CLB+VPA or VPA-alone” value [4] read?
A: Its value is “increase”.

Source: paper PMC11496002 (Epilepsia, 2024)
